# Results reported in publication PMC5433098, “Intrinsic Toxin-Derived Peptides Destabilize and Inactivate Clostridium difficile TcdB” (mBio, 2017).
# Columns and labels:
# TcdB [1] = experiment: Dialysis (50-kDa cutoff) followed by cytotoxicity assay in CHO-K1 cells; type: cell-based, Clostridium difficile; conditions: for TcdB-inhibitory activity retained after dialysis: 125 μM inhibitor in serum-free F-12–K, 50-kDa-cutoff membrane into PBS, about 62.5 μM tested, CHO-K1, 24 h, 0.4 pM TcdB, n = 3
# Description: (§1) In cytotoxicity assays, CHO-K1 cells were seeded in 96-well plates at a density of 1.0 × 10^4 cells/well and allowed to attach overnight. Cells were incubated with toxin or toxin plus peptide for 24 h, and then cell viability was quantified by the cell counting kit 8 (CCK-8) assay (Sigma), a WST-8 dye-based colorimetric reaction.
# Inhibitors were diluted to 125 μM in F-12–K medium lacking FBS. Then, 1 ml of the diluted inhibitor was dialyzed with a 50-kDa-cutoff membrane into 2 liters of PBS while stirring. After 3 h, the PBS was discarded and replaced with an additional 1.5 liters of PBS. After 2 more hours of stirring dialysis, the inhibitors were removed from the dialysis tube and diluted into F-12–K medium containing 20% FBS. This produced an inhibitor concentration of approximately 62.5 μM that was then tested for TcdB inhibition using a cytotoxicity assay described above. As controls, a portion of the diluted inhibitors were subjected to mock dialysis conditions and also tested in a cytotoxicity assay.
# [2] = Oligomerization by BS3 cross-linking and SDS-PAGE; type: physicochemical; conditions: 1.4 mM peptide, 5 mM BS3, 25 mM HEPES pH 7.4, 150 mM NaCl, 30 min 25°C; 4 to 20% SDS-PAGE, Coomassie
# Description: Peptides were cross-linked using bis(sulfosuccinimidyl)suberate (BS^3), which is a water-soluble homobifunctional cross-linking agent that reacts with primary amine groups. The cross-linking reaction was performed with 1.4 mM peptide and 5 mM BS^3 in a buffer consisting of 25 mM HEPES (pH 7.4) and 150 mM NaCl. The reaction proceeded for 30 min at 25°C and then was quenched with 100 mM Tris, pH 8.0.
# TcdB [3] = experiment: In vitro autoprocessing assay with IP6; type: biochemical, Clostridium difficile; conditions: 37 pM TcdB, 500 µM IP6, 1 h 37°C, 50 µM peptide, n = 4
# Description: TcdB autoprocessing was activated by incubating 37 pM TcdB with 500 µM inositol hexakisphosphate (IP6) for 1 h at 37°C in a buffer consisting of 50 mM HEPES (pH 7.5), 150 mM NaCl, and 20 mM dithiothreitol (DTT). After the reaction was stopped by heating the samples at 95°C for 7 min in SDS-PAGE sample buffer, cleavage of TcdB was evaluated by an immunoblot assay probing with antibodies to the amino-terminal domain of TcdB (R&D Systems; catalog no. AF6246).
# TcdB2Δ1853–2366 [4] = experiment: Surface plasmon resonance (SPR); type: binding, Clostridium difficile; conditions: 40 µM PepB2, 20 μl/min, 25°C
# Description: (§2) Surface plasmon resonance (SPR) analysis was performed using a Biacore 3000 instrument (OMRF Biacore Core Facility). TcdB2, TcdB2Δ1853–2366, TcdB2_1851–2366, or BSA was captured on a CM5 sensor chip via amine coupling chemistry based on EDC/N-hydroxysuccinimide (NHS) activation of the carboxymethyl groups of the sensor chip surface. For TcdB2 conjugation, 1 μM TcdB2 or TcdB2Δ1853–2366 was injected at a flow rate of 10 μl/min. TcdB2_1851–2366 was injected at a concentration of 2.5 μM with a flow rate of 10 μl/min. After protein conjugation, ethanolamine was passed over the sensor chip to deactivate unreacted NHS esters. The running buffer used for the binding experiments consisted of 25 mM HEPES (pH 7.4), 150 mM NaCl, and 0.01% Tween 20, and the chip regeneration buffer consisted of 50 mM NaOH and 1 M NaCl.
# TcdB2 [5] = experiment: Surface plasmon resonance (SPR); type: binding, Clostridium difficile
# Description: as §2
# TcdB1 [6] = experiment: Transepithelial electrical resistance (TER) in T84 cells; conditions: polarized T84 cells, 40 pM TcdB1, 50 µM peptide, n = 4
# TcdB [7] = experiment: TcdB associating with CHO-K1 cells (immunoblot); type: cell-based, Clostridium difficile; conditions: 37°C, 4 nM TcdB, 50 µM peptide
# Description: CHO-K1 cells were cultured as described above and were seeded the day before the experiment in 12-well plates at a density of 1.0 × 10^5 cells/well. These cells were then exposed for 10 min or 30 min at 37°C to 4 nM of TcdB in the presence and absence of peptide. After this exposure, the cells were then washed twice with 1 ml of complete medium, and then total proteins were extracted by adding cold lysis buffer (1% SDS, 50 mM Tris-HCl [pH 7.4], 5 mM EDTA, and a protease inhibitor mixture). For each condition, equal amounts of total protein were analyzed by immunoblot probing with antibodies to the amino-terminal domain of TcdB (R&D Systems; catalog no. AF6246) or an antibody to glyceraldehyde-3-phosphate dehydrogenase (GAPDH) (Abcam; catalog no. AB8245).
# TcdB2 [8] = experiment: Cytotoxicity assay in CHO-K1 cells (CCK-8); type: cell-based, Clostridium difficile; conditions: 24 h, 50 µM peptide, n = 3
# Description: as §1
# TcdB1 [9] = experiment: Cytotoxicity assay in CHO-K1 cells (CCK-8); type: cell-based, Clostridium difficile; conditions: 24 h, 50 µM peptide, n = 3
# Description: as §1
# [10] = tested on: bovine serum albumin (BSA); experiment: Surface plasmon resonance (SPR), reference channel; type: binding
# Description: as §2
# TcdB [11] = experiment: Intracellular Rac1 glucosylation in CHO-K1 cells (immunoblot); type: cell-based, Clostridium difficile; conditions: TcdB 0.037-3.7 pM, 25 h, 50 µM peptide
# Description: CHO-K1 cells were cultured as described above and were seeded the day before the experiment in 24-well plates at a density of 5.0 × 10^4 cells/well. TcdB was then combined with peptide in complete culture medium and added to cells. Following this exposure, total proteins were extracted by removing culture medium and adding cold lysis buffer (1% SDS, 50 mM Tris-HCl [pH 7.4], 5 mM EDTA, and a protease inhibitor mixture). For each condition, equal amounts of total protein were analyzed by immunoblot probing with a mouse monoclonal antibody to total Rac1 (EMD Millipore; catalog no. 05-389) or a mouse monoclonal antibody recognizing nonglucosylated Rac1 (BD Bioscience; catalog no. 610651).
# TcdB [12] = experiment: In vitro Rac1 glucosylation assay; type: biochemical, Clostridium difficile; conditions: TcdB 1.2-24 nM, 400 nM GST-Rac1, 40 μM UDP-glucose, 37°C 1 h, 50 µM peptide, n = 3
# Description: (§3) To determine how PepB2 influences the glucosylation activity of TcdB, 400 nM purified GST-Rac1 and 40 μM UDP-glucose were combined with a range of concentrations of TcdB (1.2 nM to 24 nM) or GTD (0.5 nM to 25 nM). These reactions were performed in 20 μl of buffer consisting of 50 mM HEPES (pH 7.5), 100 mM KCl, 2 mM MgCl2, 1 mM MnCl2, and 100 μg/ml BSA. The reactions were carried out at 37°C for 1 h and were stopped by heating the samples at 95°C for 7 min in sample buffer (62.5 mM Tris-HCl [pH 6.8], 2% SDS, 10% glycerol, 5% β-mercaptoethanol, and 0.001% bromphenol blue). An immunoblotting assay was then performed by probing with a mouse monoclonal antibody to total Rac1 (EMD Millipore; catalog no. 05-389) or a mouse monoclonal antibody recognizing nonglucosylated Rac1 (BD Bioscience; catalog no. 610651).
# [13] = tested on: purified recombinant GTD (TcdB aa 1 to 543); experiment: In vitro Rac1 glucosylation assay; type: biochemical, Clostridium difficile; conditions: GTD 0.5-25 nM, 50 µM peptide, n = 2
# Description: as §3
# [14] = tested on: Bacillus anthracis lethal toxin (LT)
# TcdB2Δ1853–2366 [15] = experiment: Cytotoxicity assay in CHO-K1 cells; type: cell-based, Clostridium difficile; conditions: 24 h, n = 3
# Description: as §1
# TcdA = experiment: Cytotoxicity assay in CHO-K1 cells; type: cell-based, Clostridium difficile; conditions: 24 h, 50 µM peptide, n = 3
# Description: as §1
compound,measurement,setting,value
"COC(=O)CC[C@@H](C)[C@H]1CC[C@H]2[C@@H]3[C@H](O)C[C@@H]4C[C@H](O)CC[C@]4(C)[C@H]3C[C@H](O)[C@]12C [methyl cholate, reference compound]",TcdB-inhibitory activity retained after dialysis,TcdB [1],toxin-inhibitory activity was lost
CC[C@H](C)[C@H](NC(=O)[C@H](CCCCN)NC(=O)[C@H](CC(=O)O)NC(=O)[C@H](CO)NC(=O)[C@@H](NC(=O)[C@@H](NC(=O)[C@H](CC(N)=O)NC(=O)CNC(=O)[C@H](CCCCN)NC(=O)[C@H](Cc1ccccc1)NC(=O)[C@@H](NC(=O)[C@@H](N)CC(N)=O)C(C)C)[C@@H](C)O)[C@@H](C)CC)C(=O)N[C@@H](CO)C(=O)N[C@@H](Cc1ccccc1)C(=O)N[C@@H](CC(N)=O)C(=O)N[C@@H](Cc1ccccc1)C(=O)N[C@@H](CO)C(=O)N[C@@H](CC(=O)O)C(=O)N[C@@H](CCCCN)C(=O)O [PepB2],oligomerization after BS3 cross-linking,[2],unable to migrate by SDS-PAGE
same,effect on IP6-induced TcdB autoproteolysis,TcdB [3],enhanced the efficiency of IP6-induced TcdB autoproteolysis
same,binding to TcdB2Δ1853–2366 compared with equal moles of TcdB2,TcdB2Δ1853–2366 [4],much higher levels of PepB2 bound TcdB2 than TcdB2Δ1853–2366
same,binding to sensor chip-immobilized TcdB,"TcdB2 [5]; SPR, Biacore 3000, CM5 chip, 5 μl/min, 25°C, BSA reference subtracted",binds TcdB
same,number of peptide molecules bound per single molecule of TcdB,TcdB2 [5]; calculated from change in response units on immobilized TcdB,approximately 250 molecules
same,effect on TcdB-mediated disruption of transepithelial resistance,TcdB1 [6],prevented TcdB-mediated disruption of transepithelial resistance
same,"TcdB association with cells, 10 min","TcdB [7]; 10 min, n = 4",significantly reduced
same,"TcdB association with cells, 30 min",TcdB [7]; 30 min,not reduced
same,"TcdB proteolytic cleavage on cells, 30 min",TcdB [7]; 30 min,causes TcdB to become susceptible to proteolytic cleavage
same,TcdB-inhibitory activity retained after dialysis,TcdB [1],TcdB-inhibitory activity was not removed
same,size of inhibitory oligomer,TcdB [1]; retained by 50-kDa-cutoff dialysis membrane,> 50 kDa
same,increase of the 50% toxic concentration (TC50) of TcdB2,TcdB2 [8]; range of toxin concentrations,200 fold
same,increase of the 50% toxic concentration (TC50) of TcdB1,TcdB1 [9]; range of toxin concentrations,500 fold
same,binding to BSA-coated reference channel,[10],did not bind
same,effect on Rac1 glucosylation by TcdB in treated cells,TcdB [11],prevented Rac1 glucosylation by TcdB in treated cells
same,effect on in vitro glucosylation of Rac1 by TcdB,TcdB [12],did not suppress the in vitro glucosylation of Rac1 by TcdB but instead appeared to increase enzymatic activity
same,effect on glucosyltransferase activity of purified recombinant GTD,[13],no effect on the glucosyltransferase activity
same,inhibition of Bacillus anthracis lethal toxin cytotoxicity,[14],did not block cytotoxicity
same,decrease in sensitivity of TcdB2Δ1853–2366 to peptide relative to full-length TcdB2,TcdB2Δ1853–2366 [15],10 fold
same,inhibition of TcdA cytotoxicity,TcdA,did not block cytotoxicity
"PepB1: peptide based on the 1769-to-1787 region of TcdB1 (NVFKDKTLANKLSFNFSDK; UniProt P18177 1769-1787, looked up, fragment)",oligomerization after BS3 cross-linking,[2],migrated into the gel in a similar pattern as uncross-linked control peptides
same,inhibition of TcdB2 cytotoxicity,TcdB2 [8],did not inhibit the cytotoxicity
same,inhibition of TcdB1 cytotoxicity,TcdB1 [9],did not inhibit the cytotoxicity
